Source: patent publication US20160067314A1, “COMPOSITIONS AND METHODS FOR INHIBITING CHEMORESISTANCE IN CANCER AND IMPROVING RESPONSE TO THERAPY” (UNIVERSITY OF VIRGINIA PATENT FOUNDATION, priority 2013, published 2016)

Tests used:
[1] = test system: A375.S2 cells; experiment: Ara-C concentration killing ~85% of adherent cells (preliminary experiments); format: cell-based, human; conditions: Ara-C for 3 days
From the text: (§1) FIG. 1. ALCAM correlates with detachment-induced therapy resistance. Relative ALCAM expression levels in melanoma measured by (A) microarray analysis and (B) RT-PCR. Expression levels are normalized to M21. Values are means±SE. (C) Relative ALCAM expression versus cell survival in additional melanoma cell lines. The graph represents detachment-induced resistance (“delta”) as the fold difference in survival between suspended versus adherent cells. Survival of adherent and suspended cells after treatment with chemotherapy (Ara-C) for 3 days was determined by replating on fibronectin. Concentrations of Ara-C were chosen for each cell line to kill ˜85% of adherent cells as determined in preliminary experiments. Concentrations were: A208 cells, 0.5 μM; A375.S2 cells, 0.3 μM; RPMI7951 cells, 5 μM, FM3: 10 μM). (D) Delta was plotted against ALCAM message level determined by RT-PCR. Values are means±SE, n>3.
(§2) The human melanoma cell lines; M21, VMM12, VMM15, VMM1, VMM5A, VMM18 were cultured as described [Molhoek, 2008; Schwartz, 2008]. RPMI7951, A208, and A375.S2 were cultured in DMEM/F12 medium supplemented with 5% heat inactivated fetal bovine serum, 15 mM HEPES and penicillin-streptomycin. FM3 cells were grown in DMEM supplemented with 10% fetal bovine serum and penicillin-streptomycin. Cell survival assays and colony assay were performed as described before [Schwartz, 2008].

[2] = test system: A208 cells; experiment: as above; format: cell-based, human; conditions: Ara-C for 3 days
From the text: as §1, §2

[3] = test system: RPMI7951 cells; experiment: as above; format: cell-based, human; conditions: Ara-C for 3 days
From the text: as §1, §2

[4] = test system: FM3; experiment: as above; format: cell-based, human; conditions: Ara-C for 3 days
From the text: as §1, §2

[5] = test system: subcutaneous M21 tumors; experiment: Mouse tumor growth, subcutaneous M21 tumors, AZN-L50 and/or cisplatin; format: in vivo; conditions: SCID mice, s.c. M21 tumors, i.p., two treatments ~1 week apart; cisplatin 8 then 3.5 mg/kg, AZN-L50 100 μg/mouse
Description: (A) Mice with palpable subcutaneous tumors were treated with cisplatin alone (CD), AZN-L50 (AZN) alone, or CD plus AZN-L50 (AZN+CD). Mice received 2 treatments 1 week apart. Tumor volume was then followed. Values are means±SE; n=8-11 mice.
Tumor generation and measurement was done as described [Schwartz, 2008]. Briefly male SCID mice (Charles River) were injected s.c. with 100,000 M21 cells. When tumors were first palpable, mice were injected I.P with cisplatin (8 mg/kg: first week and 3.5 mg/kg: second week), AZN-L50 (100 μg/mouse) or both for 2 consecutive weeks. The tumor volumes were recorded weekly.
All statistical analyses were done as described [Schwartz, 2008]. Briefly repeated measures models were used to compare tumor growth in control, cisplatin alone, AZN-L50 alone and cisplatin+AZN-L50 groups. These models account for the correlations among measurements taken from the same animal over time. We used linear models for the log-transformed tumor growth and the assumption that the correlation between measurements decreases with the amount of time between the measurements. F-tests based on contrasts were used to make specific comparisons between groups. All analyses were carried out in SAS 9.2 and GAUSS 10.0.

[6] = test system: subcutaneous M21 tumors; experiment: Mouse tumor growth, subcutaneous M21 tumors, FN-COMP and/or cisplatin; format: in vivo; conditions: SCID mice; for Tumor growth / tumor size: s.c. M21 tumors, i.p., three treatments ~1 week apart, cisplatin 8 then 3.5 mg/kg, FN-COMP 500 μg/mouse
Description: (§3) FIG. 4, Example 2—FN-COMP in chemotherapy in vivo. (A) SCID mice were injected with 500 μg of FN-COMP. At the indicated times, plasma was analyzed by western blotting for fibronectin (FN). (B) Mice with palpable subcutaneous tumors were treated with cisplatin (CD), FN-COMP (FNC) alone, or CD plus FNC. Mice received 3 successive treatments 1 week apart. Tumor volumes were then followed. Values are means±SE, n=10-15 mice. For CD vs. CD+FNC: *P<0.0031. The error bars are asymmetric because the analysis was done in the log-scale, and then converted back to the original scale. Qualitatively similar results were obtained in 2 independent experiments.
(§4) Tumor generation in 6-8 wk old male SCID mice (Charles River Laboratories) and tumor measurement were done as described. When tumors were first palpable, mice were injected intraperitoneally (i.p.) with cisplatin (8 mg/kg: first week and 3.5 mg/kg: second and third weeks), FN-COMP (500 μg/mouse) or both for 3 consecutive weeks. The tumor volumes were recorded weekly. To assay levels in the blood, SCID mice with no tumors were injected intraperitoneally with FN-COMP (500 μg/mouse). Blood was collected at 0, 3, 6, or 24 h post injection. Plasma was subjected to Western blotting with the indicated antibodies. All animal procedures were done according to our institutional Animal Care and Use Committee guidelines.
Statistical analyses were done as described. Briefly, repeated measures models were used to compare tumor growth in control, cisplatin alone, FN-COMP alone and cisplatin+FN-COMP groups. These models account for the correlations among measurements taken from the same animal over time. We used linear models for the log-transformed tumor growth and the assumption that the correlation between measurements decreases with the amount of time between the measurements. F-tests based on contrasts were used to make specific comparisons between groups. All analyses were carried out in SAS 9.2 and GAUSS 10.0.

[7] = test system: M21 melanoma cells; experiment: Short term survival assay after chemotherapy, adherent or suspended cells; format: cell-based, human; conditions: M21, siRNA transfected, 10 μM Ara-C, 3 days
Description: (§5) FIG. 2. ALCAM mediates detachment-induced therapy resistance. (A) ALCAM expression by RT-PCR in M21 melanoma cells after transfection with indicated siRNAs. Values are means±SE. (B) Proliferation of M21 cells expressing either ALCAM or control siRNA. 5×10^5 cells were plated and after 72 h counted. Values are means±SD, (C) Short term survival assays—cells transfected with the indicated siRNAs were treated with chemotherapy (M21:10 μM Ara-C; VMM12:10 μM cisplatin) while adherent (Ad) or suspended (Sus). Cell survival was assayed after 3 days. Values are means±SE, n>3. (D) Adherent or suspended M21 cells were treated with 10 μM Ara-C, then washed and re-plated, and colonies counted after 10 days. Values are means±SD, n=3. **P<0.01, *P<0.05
(§6) We next asked whether ALCAM might play a causal role in chemoresistance induced by loss of integrin-mediated cell adhesion. We therefore designed and tested several siRNA sequences. […] We next examined chemosensitivity in adherent and suspended M21 and VMM12 melanoma lines. Cells transfected with two distinct ALCAM siRNAs (#10 or #11), or control siRNA, were treated with chemotherapy for 3 days, then survival assayed by re-plating on fibronectin. […] Control siRNA had no effect in either condition.
(§7) ALCAM can mediate homophilic adhesion, as well as heterophilic adhesion to CD6, both of which are blocked by a monoclonal antibody, AZN-L50 (van Kempen J Biol Chem. 2001; 276:25783-90; Zimmerman Blood. 2006; 107:3212-20). […] M21 and VMM12 cells were subject to chemotherapy for 72 h while adherent or suspended, in the presence or absence of AZN-L50. Survival was then assayed as before.
as §2

[8] = test system: VMM12 melanoma cells; experiment: as above; format: cell-based, human; conditions: VMM12, siRNA transfected, 10 μM cisplatin, 3 days
Description: as §5, §6, §7, §2

[9] = test system: integrin signaling; experiment: Tyrosine phosphorylation in suspended cells, Western blot with pY20; format: cell-based; conditions: suspended M21 melanoma or mouse 3T3 cells, FN-COMP 40 μg/ml
Description: FIG. 2, Example 2—FN-COMP stimulates signaling in vitro. Either M21 melanoma or mouse 3T3 cells were left adherent (Ad) or detached and kept in suspension (sus) for 1 h. Suspended cells were either treated with of FN-COMP at 40 μg/ml for indicated times or left untreated. Lysates were analyzed by Western blotting using antiphosphotyrosine antibody pY20. Tubulin was used as a loading control. n=2.
Cells were lysed as previously described. Proteins were separated on SDS-PAGE gels, transferred, blocked, and probed with the indicated primary antibodies. Blots were washed, incubated with secondary antibodies and developed using ECL reagents (Pierce) and film (Kodak). FN-COMP under reducing and non-reducing condition was loaded on SDSPAGE gels and was subjected electrophoresis. Gels were stained with Coomassie Blue to visualize the bands.

[10] = FN-COMP levels in blood after intraperitoneal injection, plasma Western blot for fibronectin; format: in vivo; conditions: SCID mice, 500 μg/mouse i.p.
Description: as §3, §4

[11] = test system: VMM18 melanoma cells; experiment: Cell survival of non-adherent cells after FN-COMP and Ara-C; format: cell-based, human; conditions: VMM18 suspended, FN-COMP 40 μg/ml 30-45 min, then Ara-C 10 μM, survival 72 h later
Description: (§8) (A) M21, (B) VMM12 or (C) VMM18 melanoma cells were left adherent (Ad) or detached and kept in suspension (Sus) for 1 h. Suspended cells were then treated with of FN-COMP (FNC) at 40 μg/ml for 30-45 min followed by treatment with either 10 Gy X-irradiation (A) or Ara-C at 10 μM (B and C). Cell survival was assayed 72 h later. Values are means } SE, n=3. *P<0.05.
(§9) The human melanoma cell lines; M21, VMM12, VMM18 were cultured as described. Cell survival assays and colony assay were performed as described. Cells were irradiated using an X-ray irradiator at a dose rate of 3.3 Gy/min.

[12] = test system: VMM12 melanoma cells; experiment: as above; format: cell-based, human; conditions: VMM12 suspended, FN-COMP 40 μg/ml 30-45 min, then Ara-C 10 μM, survival 72 h later
Description: as §8, §9

[13] = test system: M21 melanoma cells; experiment: Cell survival of non-adherent cells after FN-COMP and X-irradiation; format: cell-based, human; conditions: M21 suspended, FN-COMP 40 μg/ml 30-45 min, then 10 Gy X-irradiation, survival 72 h later
Description: as §8, §9

[14] = test system: focal adhesion kinase and p130cas; conditions: observed at nM concentrations; cited from earlier work
[15] = test system: human melanoma; conditions: mouse xenografts of human melanoma, previous report [7]; cited from earlier work

Nc1ccn([C@@H]2O[C@H](CO)[C@@H](O)[C@@H]2O)c(=O)n1 [Ara-C, 1-β-D-arabinofuranosylcytosine]
Concentration of Ara-C chosen to kill ˜85% of adherent cells [1]: 0.3 µM
Concentration of Ara-C chosen to kill ˜85% of adherent cells [2]: 0.5 µM
Concentration of Ara-C chosen to kill ˜85% of adherent cells [3]: 5 µM
Concentration of Ara-C chosen to kill ˜85% of adherent cells [4]: 10 µM

N.N.[Cl][Pt][Cl] [cisplatin, cis-Dichlorodiamine platinum(II)]
Tumor growth / tumor size [5]: Neither AZN-L50 alone nor cisplatin alone had significant effects on tumor growth
Tumor growth / tumor size [6]: Neither FN-COMP alone nor cisplatin alone had significant effects on tumor growth

ALCAM siRNA #10: siRNA that targets ALCAM, 5-GGAAACUAUGUCUGCGAAA-3 (SEQ ID NO:5) (listed as RNA, chemistry not given here)
Cell survival, adherent cells [7]: no effect
Cell survival, suspended cells [7]: drastically reduced cell survival
Cell survival, adherent cells [8]: no effect
Cell survival, suspended cells [8]: drastically reduced cell survival

ALCAM siRNA #11: siRNA that targets ALCAM, 5′-CACCTGCTCGGTGACATATTA-3′ (SEQ ID NO:4), described before [Hong, 2010] (other strand not cited, further chemistry not given here)
Cell survival, adherent cells [7]: no effect
Cell survival, suspended cells [7]: drastically reduced cell survival
Cell survival, adherent cells [8]: no effect
Cell survival, suspended cells [8]: drastically reduced cell survival

FN-COMP: homo-pentameric construct of fibronectin peptides (type III repeats 5-11) linked by the assembly domain of COMP (amino acid residues 27-84)
Tyrosine phosphorylation (characteristic of integrin signaling) [9]: increased tyrosine phosphorylation of bands around 60, 75 and 125 kD
Stability in blood after injection [10]: at least 24 h
Time of appearance in the blood [10]: ≤ 3 h
Response to therapy (chemosensitivity) of non-adherent cells [11]: no effect
Response to therapy (chemosensitivity) of non-adherent cells [12]: improved chemo and radiosensitivity
Side effects in the mice ([6]; 3 weekly i.p. treatments): not observed
Tumor growth / tumor size [6]: Neither FN-COMP alone nor cisplatin alone had significant effects on tumor growth
Response to therapy (radiosensitivity) of non-adherent cells [13]: improved chemo and radiosensitivity

contortrostatin
Tyrosine phosphorylation of integrin targets [14]: strongly increased
Therapeutic responses when combined with chemotherapy [15]: improved therapeutic responses
